Reference: ChEMBL document CHEMBL4229543, “Squaramides as novel class I and IIB histone deacetylase inhibitors for topical treatment of cutaneous t-cell lymphoma” (Bioorg Med Chem Lett, 2018)

Key:
Histone deacetylase 1 [1] = biological target: T1, Histone deacetylase 1 (Homo sapiens, UniProt Q13547); experiment: Inhibition of human recombinant HDAC1 using Fluor de Lys as substrate after 2 hrs by fluorescence method
Histone deacetylase 4 = Histone deacetylase 4 (Homo sapiens, UniProt P56524); experiment: Inhibition of human recombinant HDAC4 using fluorogenic HDAC substrate class 2a after 30 mins by fluorimetrc method
[2] = biological target: T2, NAD-dependent protein deacetylase sirtuin-3, mitochondrial (Homo sapiens, UniProt Q9NTG7); experiment: Inhibition of human recombinant SIRT3 using fluoro-lysine sirtuin 2 deacetylase substrate after 45 mins by fluorimetrc method
T2 sequence (Q9NTG7 whole entry): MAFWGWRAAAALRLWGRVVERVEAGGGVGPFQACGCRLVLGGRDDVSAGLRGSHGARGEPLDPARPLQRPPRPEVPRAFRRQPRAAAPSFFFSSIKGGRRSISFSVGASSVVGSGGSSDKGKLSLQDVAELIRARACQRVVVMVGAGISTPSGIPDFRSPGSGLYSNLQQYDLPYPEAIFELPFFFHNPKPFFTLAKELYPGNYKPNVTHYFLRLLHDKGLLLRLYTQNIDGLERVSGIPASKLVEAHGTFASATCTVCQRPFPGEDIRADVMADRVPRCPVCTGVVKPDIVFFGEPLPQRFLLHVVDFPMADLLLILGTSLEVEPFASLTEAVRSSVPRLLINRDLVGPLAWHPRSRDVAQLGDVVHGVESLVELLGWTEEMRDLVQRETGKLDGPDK

Histone deacetylase 3 = Histone deacetylase 3 (Homo sapiens, UniProt O15379); experiment: Inhibition of human recombinant HDAC3 using fluorogenic HDAC substrate after 10 mins by […] method
Histone deacetylase 11 = biological target: T3, Histone deacetylase 11 (Homo sapiens, UniProt Q96DB2); experiment: Inhibition of human recombinant HDAC11 using fluorogenic HDAC substrate class 2a after 30 mins by fluorimetrc method
T3 sequence (Q96DB2 whole entry): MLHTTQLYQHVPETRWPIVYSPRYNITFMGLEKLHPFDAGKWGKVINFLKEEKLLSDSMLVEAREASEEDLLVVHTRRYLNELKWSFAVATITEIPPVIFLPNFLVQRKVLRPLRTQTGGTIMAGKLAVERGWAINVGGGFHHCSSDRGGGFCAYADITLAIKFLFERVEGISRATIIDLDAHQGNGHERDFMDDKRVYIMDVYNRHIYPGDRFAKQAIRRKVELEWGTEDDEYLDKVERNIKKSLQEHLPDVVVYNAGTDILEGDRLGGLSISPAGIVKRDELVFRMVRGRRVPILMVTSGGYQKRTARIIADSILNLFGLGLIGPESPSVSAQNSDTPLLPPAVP

[3] = biological target: T4, Protein deacetylase HDAC6 (Homo sapiens, UniProt Q9UBN7); experiment: Inhibition of human recombinant HDAC6 using fluorogenic HDAC substrate after 30 mins by fluorimetrc method
T4 sequence (Q9UBN7 whole entry): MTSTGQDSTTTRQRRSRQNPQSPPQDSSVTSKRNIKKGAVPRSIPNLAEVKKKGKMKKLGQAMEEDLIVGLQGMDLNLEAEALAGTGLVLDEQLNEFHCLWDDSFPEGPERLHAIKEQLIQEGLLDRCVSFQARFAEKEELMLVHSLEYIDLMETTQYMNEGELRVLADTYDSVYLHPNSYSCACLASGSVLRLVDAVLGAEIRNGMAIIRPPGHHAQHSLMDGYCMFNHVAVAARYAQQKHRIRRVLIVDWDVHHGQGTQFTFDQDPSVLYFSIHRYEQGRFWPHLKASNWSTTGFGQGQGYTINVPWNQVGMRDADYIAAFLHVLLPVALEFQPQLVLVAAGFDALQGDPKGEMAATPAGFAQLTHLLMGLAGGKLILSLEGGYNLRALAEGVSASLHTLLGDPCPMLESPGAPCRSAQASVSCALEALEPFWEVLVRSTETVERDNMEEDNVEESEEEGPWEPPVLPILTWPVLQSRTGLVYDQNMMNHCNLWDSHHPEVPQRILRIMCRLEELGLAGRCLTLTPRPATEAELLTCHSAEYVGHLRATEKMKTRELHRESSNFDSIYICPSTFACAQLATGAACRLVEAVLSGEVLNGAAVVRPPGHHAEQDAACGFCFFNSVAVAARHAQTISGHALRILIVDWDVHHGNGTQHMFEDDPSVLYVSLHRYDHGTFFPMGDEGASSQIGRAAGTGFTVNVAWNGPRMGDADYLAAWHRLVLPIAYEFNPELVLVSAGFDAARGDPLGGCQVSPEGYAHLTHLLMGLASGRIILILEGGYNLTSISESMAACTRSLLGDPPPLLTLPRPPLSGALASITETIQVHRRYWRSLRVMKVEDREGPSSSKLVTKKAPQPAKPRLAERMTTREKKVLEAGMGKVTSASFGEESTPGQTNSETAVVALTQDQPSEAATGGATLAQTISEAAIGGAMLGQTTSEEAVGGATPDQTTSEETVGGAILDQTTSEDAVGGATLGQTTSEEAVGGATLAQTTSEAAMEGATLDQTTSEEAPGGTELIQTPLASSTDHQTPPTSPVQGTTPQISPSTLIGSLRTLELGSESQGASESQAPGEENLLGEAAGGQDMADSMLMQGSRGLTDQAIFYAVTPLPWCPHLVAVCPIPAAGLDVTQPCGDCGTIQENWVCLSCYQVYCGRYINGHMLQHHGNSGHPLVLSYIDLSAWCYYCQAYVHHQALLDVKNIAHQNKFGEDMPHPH

Histone deacetylase 1 [4] = biological target: T1, Histone deacetylase 1; experiment: Inhibition of human recombinant HDAC1 using fluorogenic HDAC substrate after 15 mins by fluorimetrc method
Histone deacetylase 8 = biological target: T5, Histone deacetylase 8 (Homo sapiens, UniProt Q9BY41); experiment: Inhibition of human recombinant HDAC8 using fluorogenic HDAC substrate after 15 mins by fluorimetrc method
T5 sequence (Q9BY41 whole entry): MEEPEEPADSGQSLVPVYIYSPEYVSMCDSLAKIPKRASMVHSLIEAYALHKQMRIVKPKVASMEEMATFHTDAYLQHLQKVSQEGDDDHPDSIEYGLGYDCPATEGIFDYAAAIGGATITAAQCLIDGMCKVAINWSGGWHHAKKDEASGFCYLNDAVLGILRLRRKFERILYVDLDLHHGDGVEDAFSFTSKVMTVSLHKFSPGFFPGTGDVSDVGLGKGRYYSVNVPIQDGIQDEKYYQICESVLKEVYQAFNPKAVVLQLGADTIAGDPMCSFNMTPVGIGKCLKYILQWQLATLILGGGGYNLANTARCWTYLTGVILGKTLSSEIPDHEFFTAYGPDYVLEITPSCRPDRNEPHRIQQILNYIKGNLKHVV

Chain of Histone deacetylase 3 (O15379 whole entry): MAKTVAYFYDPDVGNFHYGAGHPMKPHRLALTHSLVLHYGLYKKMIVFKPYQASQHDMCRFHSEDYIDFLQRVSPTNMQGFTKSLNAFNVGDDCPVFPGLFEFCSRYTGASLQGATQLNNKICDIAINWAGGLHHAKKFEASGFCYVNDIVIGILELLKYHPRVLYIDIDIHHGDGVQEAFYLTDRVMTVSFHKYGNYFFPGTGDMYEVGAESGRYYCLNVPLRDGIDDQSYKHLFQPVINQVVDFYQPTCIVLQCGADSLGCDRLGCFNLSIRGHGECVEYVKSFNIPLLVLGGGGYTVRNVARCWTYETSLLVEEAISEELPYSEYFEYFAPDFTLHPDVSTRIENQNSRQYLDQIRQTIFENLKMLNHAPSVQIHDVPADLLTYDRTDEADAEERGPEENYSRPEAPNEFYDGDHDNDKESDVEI
T1 sequence (Q13547 whole entry): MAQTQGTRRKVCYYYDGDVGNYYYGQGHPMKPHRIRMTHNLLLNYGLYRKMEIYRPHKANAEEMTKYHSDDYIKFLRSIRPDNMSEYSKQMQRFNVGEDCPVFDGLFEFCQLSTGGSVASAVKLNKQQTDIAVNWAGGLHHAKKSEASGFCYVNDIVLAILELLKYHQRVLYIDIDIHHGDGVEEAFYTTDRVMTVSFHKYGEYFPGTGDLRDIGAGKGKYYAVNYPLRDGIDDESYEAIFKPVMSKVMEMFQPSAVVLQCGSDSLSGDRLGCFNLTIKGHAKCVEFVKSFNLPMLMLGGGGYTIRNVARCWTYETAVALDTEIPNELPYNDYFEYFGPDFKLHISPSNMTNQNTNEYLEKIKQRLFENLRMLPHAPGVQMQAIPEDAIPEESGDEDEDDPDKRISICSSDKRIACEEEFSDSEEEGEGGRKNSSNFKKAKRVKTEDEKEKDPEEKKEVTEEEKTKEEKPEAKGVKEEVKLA
Chain of Histone deacetylase 4 (P56524 whole entry): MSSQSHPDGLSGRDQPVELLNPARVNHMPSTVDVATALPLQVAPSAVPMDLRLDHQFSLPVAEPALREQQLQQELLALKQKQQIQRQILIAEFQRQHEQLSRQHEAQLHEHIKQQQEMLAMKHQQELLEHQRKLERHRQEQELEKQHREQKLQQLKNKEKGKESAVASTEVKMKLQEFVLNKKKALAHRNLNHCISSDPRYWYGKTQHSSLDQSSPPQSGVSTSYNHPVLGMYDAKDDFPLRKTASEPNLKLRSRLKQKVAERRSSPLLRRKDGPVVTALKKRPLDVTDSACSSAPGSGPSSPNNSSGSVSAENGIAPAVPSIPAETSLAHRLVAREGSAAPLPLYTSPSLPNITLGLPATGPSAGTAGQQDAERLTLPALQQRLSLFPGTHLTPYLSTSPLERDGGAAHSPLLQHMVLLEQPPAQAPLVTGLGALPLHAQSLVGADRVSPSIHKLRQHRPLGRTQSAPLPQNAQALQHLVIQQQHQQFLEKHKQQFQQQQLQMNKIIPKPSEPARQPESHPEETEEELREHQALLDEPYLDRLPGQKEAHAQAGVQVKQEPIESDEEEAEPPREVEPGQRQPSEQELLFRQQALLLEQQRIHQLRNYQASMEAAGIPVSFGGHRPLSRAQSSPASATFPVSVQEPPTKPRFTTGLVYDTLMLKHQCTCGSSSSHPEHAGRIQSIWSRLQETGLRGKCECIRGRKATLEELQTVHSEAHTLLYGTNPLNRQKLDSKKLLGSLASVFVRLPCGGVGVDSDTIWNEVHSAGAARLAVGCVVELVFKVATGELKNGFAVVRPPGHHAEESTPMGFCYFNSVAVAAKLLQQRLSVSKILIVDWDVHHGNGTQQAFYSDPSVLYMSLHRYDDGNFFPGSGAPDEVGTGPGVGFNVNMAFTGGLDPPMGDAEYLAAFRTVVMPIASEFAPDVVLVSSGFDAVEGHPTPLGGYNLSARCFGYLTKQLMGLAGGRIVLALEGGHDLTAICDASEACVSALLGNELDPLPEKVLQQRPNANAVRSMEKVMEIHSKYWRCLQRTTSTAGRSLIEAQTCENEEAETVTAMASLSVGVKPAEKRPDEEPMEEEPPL

COc1ccc(Nc2c(NCCCCCC(=O)NO)c(=O)c2=O)cc1
Ki (Histone deacetylase 1 [1]): 0.075 nM
Ki (Histone deacetylase 4): > 10000 nM
Ki [2]: > 10000 nM
Ki (Histone deacetylase 3): 0.8 nM
Ki (Histone deacetylase 11): 140 nM
Ki [3]: 23 nM
Ki (Histone deacetylase 1 [4]): 0.34 nM
Ki (Histone deacetylase 8): 100 nM

CC(C)(CCCCC(=O)NO)Nc1c(Nc2ccc(C(F)(F)F)cc2)c(=O)c1=O
Ki (Histone deacetylase 1 [1]): 0.27 nM
Ki (Histone deacetylase 4): 3400 nM
Ki [2]: > 10000 nM
Ki (Histone deacetylase 3): 12 nM
Ki (Histone deacetylase 11): 21 nM
Ki [3]: 130 nM
Ki (Histone deacetylase 1 [4]): 1 nM
Ki (Histone deacetylase 8): 110 nM

CC(Nc1c(NCCCCCC(=O)NO)c(=O)c1=O)C12CC3CC(CC(C3)C1)C2 (centres undefined)
Ki (Histone deacetylase 1 [1]): 3.8 nM
Ki (Histone deacetylase 4): > 10000 nM
Ki [2]: > 10000 nM
Ki (Histone deacetylase 3): 58 nM
Ki (Histone deacetylase 11): 38 nM
Ki [3]: 130 nM
Ki (Histone deacetylase 1 [4]): 48 nM
Ki (Histone deacetylase 8): 320 nM
